Results as given in patent US20240150396A1 (The Texas A&M University System, priority 2021, published 2024).
Where “and” joins values, the source holds several entries; their conditions need not be identical. Equal values may be shown once. Read-outs that look alike come from different tables or passages of the source. Residues, ends and D or L forms follow the SMILES beside them. *: point of attachment. Cbz = O=C(OCc1ccccc1)*

Assays:
cruzain = cruzain (Trypanosoma cruzi, UniProt P25779); experiment: biochemical; details: for Ki: pH 7.5
Experimental: All enzyme assays were performed at 25° C. Initial rates of the peptidolytic reaction catalyzed by cruzain were measured by monitoring the fluorescence generated by cleavage of the dipeptide-AMC bond. Assays were conducted in 96-well plates (Greiner; flat-bottom, clear black plates) in a total volume of 250 μL, containing either 50 mM MES (pH 7.5), 50 mM TAPSO, 100 mM DEA, 1 mM CHAPS, 1 mM Na2EDTA, 5 mM DTT, and 10% DMSO (v/v) or 50 mM sodium acetate (pH 5.5), 50 mM MES, 100 mM TEA, 1 mM CHAPS, 1 mM Na2EDTA, 5 mM DTT, and 10% DMSO (v/v). Substrates were dissolved in 100% DMSO and were then diluted 10-fold such that when added to reaction mixtures, final DMSO concentration was 10% (v/v). […] Fluorescence was measured on either a SpectraMax M5 (Molecular Devices) or a Synergy HTX (BioTek, Winooski, VT) microplate reader (λex=360 nm, λem=460 nm). Initial rates were determined from continuous kinetic time courses and calculated from the earliest time points, typically at less than 10 min.
(2) Enzyme and compound were preincubated over extended periods of time, and then aliquots were removed and diluted 50-fold to 100-fold into reaction mixtures containing 10 μM Cbz-Phe-Arg-AMC, followed by the assessment of the resulting time courses.
Data for time-dependent inhibition were fitted by several methods.
Values of kobs versus [inhibitor] were then replotted and fitted to eq 4 for which k3 and k4 represent the respective rates of formation and dissolution of the EI* complex as depicted in FIG. 9.
In addition, time-course data were fitted globally by two methods. First, expressions for vs, vi, and kobs were substituted into eq 3 to generate eq 6, which was used to fit time-course data at all concentrations of inhibitors simultaneously. Second, time-course data were fitted using KinTek Explorer as either a single-binding step model with the two kinetic parameters k3/Ki and k4 or a two-step binding mechanism as shown in FIG. 9 from which rate constants k1-k4 are determined (Supporting Information).
Enzyme Assays. The preparation of cruzain and 3CL^pro were described in previous publications.^8, 34 The evaluation of inhibitors was modified from our lab protocol and described briefly as follows.^35 All enzyme assays were conducted in 96-well, clear bottom, black plates at 25° C., and fluorescence emanating from product formation was measured using either a SpectraMax M5 (Molecular Devices) or a Synergy HTX (Biotek) microplate reader, with excitation at λex=360 nm and emission at λem=460 nm. […] Reactions were started with addition of enzyme (typically, to a final concentration of 0.2 nM for cruzain or 40 nM for 3CL^pro), and the time courses were recorded for 0.5-1 h.
Kinetic Data Analysis. All time-course data were fitted to eq. 1, wherein P is the fluorescence generated by formation of AMC or liberated ACC, C is the background constant, vi and vs are respectively initial-state and steady-state reaction rates, t is time, and kobs is the observed rate of conversion of the initial inhibited rate to the final inhibited rate.^46
Overall inhibition constants (Ki* values) were obtained by fitting vs/v0 to eq. 4, wherein vs and v0 are steady-state reaction rates in the presence and absence of inhibitor respectively, [S] and [I] represent the fixed concentration of substrate and variable inhibitor, Km is the Michaelis constant of the substrate.

[1] = system: T. cruzi (Ca-I/72) in C2C12 murine cardiomyoblasts; experiment: T. cruzi-infected murine cardiomyoblasts (C2C12); assay type: cell-based, Trypanosoma cruzi; details: read-out: EC50 T. cruzi-infected cardiomyoblasts
Experimental: For the evaluation of the antitrypanocidal activity of cruzain inhibitors, we infected a C2C12 mouse cardiomyoblast cell line (ATCC CRL-1772) with T. cruzi strain Ca-I/72 (a gift from James Dvorak, National Institutes of Health) in […] plates. […] The plates were incubated at 37° C. for 48 h, and the wells were fixed with 2% paraformaldehyde in PBS and stained with 5 μg mL-1 4,6-diamidino-2-phenylindole. After at least 30 min of incubation at room temperature in the dark, the plates were read in an automated microscope, ImageXpress Micro XL (Molecular Devices), and the images were analyzed by custom-built software to quantify and assess viability of the parasites, as well as the host cells independently. The compilation of data was used to calculate the antiparasitic activity (EC50) and host cytotoxicity (CC50).
T. cruzi infection was evaluated in C2C12 murine cardiomyoblast cells. 384-microwell plates containing C2C12 murine cardiomyoblast cells were infected with 10^3 and 10^4 cells of T. cruzi (Ca-I/72), to which was added 3-fold serially-dilutions of inhibitor with maximal concentrations of 10 μM, followed by incubation at 37° C. for 2 days. The wells were fixed with 2% PFA in PBS, and stained by 5 μg/ml of DAPI. After >30 min of incubation in a dark environment, the plates were read on an ImageXpress MicroXL microscope (Molecular Devices). The images were analyzed to quantify parasites as well host cells.

[2] = Host cell cytotoxicity in the T. cruzi infection model; assay type: cell-based, mouse; details: mouse; host cardiomyoblasts; read-out: C2C12 Cytotoxicity CC50
Experimental: The plates were incubated at 37° C. for 48 h, and the wells were fixed with 2% paraformaldehyde in PBS and stained with 5 μg mL-1 4,6-diamidino-2-phenylindole. After at least 30 min of incubation at room temperature in the dark, the plates were read in an automated microscope, ImageXpress Micro XL (Molecular Devices), and the images were analyzed by custom-built software to quantify and assess viability of the parasites, as well as the host cells independently. The compilation of data was used to calculate the antiparasitic activity (EC50) and host cytotoxicity (CC50).
T. cruzi infection was evaluated in C2C12 murine cardiomyoblast cells. […] The wells were fixed with 2% PFA in PBS, and stained by 5 μg/ml of DAPI. After >30 min of incubation in a dark environment, the plates were read on an ImageXpress MicroXL microscope (Molecular Devices). The images were analyzed to quantify parasites as well host cells.

[3] = system: T. cruzi epimastigotes (strain Y); experiment: Growth of axenic cultures of T. cruzi epimastigotes; details: for EC50: Trypanosoma cruzi, read-out: T. cruzi axenic culture EC50, epimastigotes; for T. cruzi axenic culture EC50: epimastigotes
Experimental: Selected cruzain inhibitors in axenic cell cultures of Trypanosoma brucei brucei (procyclic trypomastigotes; ATCC PRA-381) and Trypanosoma cruzi (epimastigote forms; strain Y, ATCC 50832GFP) were tested. T. b. brucei is grown in SDM-79 medium, and T. cruzi is grown in ATCC medium (1029 LIT medium). Both media included fetal calf serum (10%) and penicillin/streptomycin (50 U/mL). […] T. brucei and T. cruzi (5 mL in flask cultures) at 26° C. were seeded at ˜3×10^6 cells, and diluted daily maintaining a mid-log growth phase for up to 100 hrs. Cell counts were scored using a Z2 Coulter Counter. After each cell dilution, fresh compound or an equal volume of DMSO (control samples), was supplemented into the cultures. […] Cruzain inhibitors where the highest concentration reflects the upper limit of solubilities of the inhibitors in 1% (v/v) DMSO solutions were evaluated. These inhibitors are likely to bind to proteins in fetal calf serum, and for these reasons, fresh inhibitors were added each time cells were re-fed.
Selected cruzain inhibitors were evaluated in axenic cell cultures of T. b. brucei and T. cruzi. Procyclic trypomastigotes of T. b. brucei (ATCC PRA-381) were grown in the SDM-79 medium at 26° C., and bloodstream forms (ATCC PRA-383) were grown at 37° C. in the HMI-9 medium at 5% C02. T. cruzi (epimastigote forms, strain Y, ATCC 50832GFP) was grown in the ATCC medium (1029 LIT medium). Both forms of T. b. brucei and T. cruzi were grown in media containing 10% fetal bovine serum (FBS) and penicillin/streptomycin (50 U mL^−1). […] Control samples contained equal amounts of DMSO. T. b. brucei and T. cruzi (5 mL in flask cultures) were seeded at ˜3×10^6 cells and diluted daily, maintaining a mid-log growth phase for up to 120 h. […] After each cell dilution, fresh compound or an equal volume of DMSO (control samples) was supplemented into the cultures, while maintaining a constant concentration of each inhibitor. Cell counts were scored using a Z2 Coulter Counter.

[4] = system: T. b. brucei bloodstream forms; experiment: Growth of axenic cultures of T. b. brucei bloodstream forms (BSFs)
Experimental: Selected cruzain inhibitors were evaluated in axenic cell cultures of T. b. brucei and T. cruzi. Procyclic trypomastigotes of T. b. brucei (ATCC PRA-381) were grown in the SDM-79 medium at 26° C., and bloodstream forms (ATCC PRA-383) were grown at 37° C. in the HMI-9 medium at 5% C02. […] Both forms of T. b. brucei and T. cruzi were grown in media containing 10% fetal bovine serum (FBS) and penicillin/streptomycin (50 U mL^−1). […] Control samples contained equal amounts of DMSO. T. b. brucei and T. cruzi (5 mL in flask cultures) were seeded at ˜3×10^6 cells and diluted daily, maintaining a mid-log growth phase for up to 120 h. […] After each cell dilution, fresh compound or an equal volume of DMSO (control samples) was supplemented into the cultures, while maintaining a constant concentration of each inhibitor. Cell counts were scored using a Z2 Coulter Counter.
In vitro Cell Assays. Bloodstream form T. b. brucei strain SM427 was grown in HM1-9 medium that included fetal bovine serum (10%) and antibiotics (100 U/mL penicillin-streptomycin, Gibco™). Inhibitors dissolved in 100% (v/v) DMSO stock solutions were added at final concentrations of 0.5-20 μM (final concentrations of DMSO were <1% (v/v)). T. b. brucei were seeded at ˜1×10^6 cells at 37° C., and diluted daily to maintain a log phase of growth for up to 96 h. […] After each dilution, the cell cultures were supplemented with inhibitor or DMSO (control) to keep concentrations constant. Cell density was determined and graphed as previously reported.^36 Trypanosomes were quantified using a Z2 Coulter Counter, and values of EC50 were determined after 3-4 days of treatment by the interpolation method of Huber and Koella.^37

[5] = system: T. b. brucei procyclic forms; experiment: Growth of axenic cultures of T. b. brucei procyclic forms (PCFs); assay type: cell-based, Trypanosoma brucei brucei; details: for EC50: axenic culture, read-out: EC50 T. b. brucei PCF
human dermal fibroblasts = experiment: Human cell toxicity, resazurin viability; assay type: cell-based; details: human dermal fibroblasts; read-out: Human Cell Cytotoxicity CC50
Experimental: Primary human dermal fibroblast (HDF) cells were used to evaluate human cell toxicity of cruzain inhibitors. HDF cells were plated in a 384-well plate at 2400 cells per well (62,000 cells mL^−1). Inhibitors in 100% DMSO were added in duplicate to final concentrations of 0.001-0.1 mM and 1% DMSO (v/v) with 1% DMSO as a control sample, and cells were cultured at 37° C. for 48 h, followed by the addition of resazurin. Cell viability was then assessed by reading of fluorescence (excitation/emission: 544 nm/590 nm) after an additional 24 h of incubation.

[6] = Thiolation of inhibitors with glutathione, LCMS; assay type: physicochemical; details: 5 mM glutathione, 0.5 mM compound, Tris pH 8.0, 10% DMSO
Experimental: Samples were analyzed by HPLC-MS (as described above) by injecting 0.01 mL aliquots onto a Luna […] C18(2) 100 Å, 4.6 mm, 50 mm column (Phenomenex) using the HPLC method described in the chemistry section at 0-6 h time points. […] Integration of the chromatographic peaks of the inhibitors and their GSH adducts at each time point was used to determine the rate of GSH adduct formation.

human cathepsin L = human cathepsin L (Homo sapiens (Human), UniProt P07711); experiment: Human cathepsin L inhibition, Z-FR-AMC assay; assay type: biochemical; details: pH 5.5, 25° C.; read-out: Ki* hCatL
Experimental: Recombinant human cathepsins B and L were purchased from Millipore Sigma and used without further treatment. The solid proteins were dissolved into a solution of 50 mM sodium acetate (pH 5.5), 1 mM EDTA, 1 mM CHAPS, 10% (v/v) DMSO, and 5 mM DTT to final concentrations of […] in 20-mL aliquots, and stored at −80° C. until needed. These samples were then diluted into the same buffer to concentrations of −100 nM, and these dilutions were stored at 4° C. and used daily until depletion.
For assays of cathepsin L and B, inhibitors were evaluated in 0.25-mL reaction mixtures containing a buffer of sodium acetate (pH 5.5), 1 mM CHAPS, 1 mM Na2EDTA, and 5 mM DTT at 25° C. The fluorogenic substrate Cbz-Phe-Arg-7-amino-4-methyl-coumarin (Z-FR-AMC) was dissolved in 100% DMSO, as were all inhibitors, and aliquots of both substrates and inhibitors were added to reaction mixtures to final concentrations of DMSO of 10% (v/v). […] Formation of the fluorescent product AMC was monitored over 30-60-minute time courses for reaction mixtures in 96-well black microplates (Corning Costar®). Rates of peptidolysis of the dipeptide-AMC substrate(s) were measured on either a SpectraMax M5 (Molecular Devices) or a Synergy HTX (Biotek, Wisnooki, VT) microplate reader with λex=360 nm, λem=460 nm in ≥8-sec intervals. Control samples excluded substrate. The measured relative fluorescence units (RFUs) of generated AMC were converted to reaction rates of μM/s by use of a standard curve of known AMC concentrations obtained for both plate readers.

SARS-CoV-2 3CL protease = SARS-CoV-2 3CL protease (Severe acute respiratory syndrome coronavirus 2 (2019-nCoV) (SARS-CoV-2), UniProt P0DTD1); experiment: biochemical; assay type: biochemical; details: pH 7.5
[7] = system: SARS-CoV-2 in Vero E6 cells; experiment: Anti-CoV-2 activity in Vero E6 cells; assay type: cell-based
[8] = apparent tight-binding inhibition constant, 25° C., read-out: Ki*
[9] = Trypanosoma cruzi, C2C12, C2C12 murine cardiomyoblasts
[10] = apparent initial inhibition constant, 25° C., read-out: Ki

Sequence of cruzain (P25779 123-467 limits assumed): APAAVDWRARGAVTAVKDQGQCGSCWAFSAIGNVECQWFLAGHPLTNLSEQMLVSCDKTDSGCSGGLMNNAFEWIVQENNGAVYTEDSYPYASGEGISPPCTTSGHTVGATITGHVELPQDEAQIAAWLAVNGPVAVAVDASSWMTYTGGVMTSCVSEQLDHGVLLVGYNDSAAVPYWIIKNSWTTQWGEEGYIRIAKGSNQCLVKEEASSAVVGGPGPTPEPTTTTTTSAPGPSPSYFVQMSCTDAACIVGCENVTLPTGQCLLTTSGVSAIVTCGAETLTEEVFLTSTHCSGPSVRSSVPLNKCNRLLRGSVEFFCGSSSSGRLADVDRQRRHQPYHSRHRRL
Sequence of human cathepsin L (P07711 114-333): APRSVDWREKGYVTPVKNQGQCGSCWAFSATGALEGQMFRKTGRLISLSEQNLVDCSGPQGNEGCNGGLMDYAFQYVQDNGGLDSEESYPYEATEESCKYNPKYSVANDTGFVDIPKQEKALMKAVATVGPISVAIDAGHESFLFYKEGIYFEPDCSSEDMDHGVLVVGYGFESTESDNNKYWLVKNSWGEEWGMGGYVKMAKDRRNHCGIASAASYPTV

CN1CCN(C(=O)N[C@@H](Cc2ccccc2)C(=O)N[C@H](/C=C/c2ncccn2)CCc2ccccc2)CC1 [Compound 9, 4-Methyl-N—((S)-1-oxo-3-phenyl-1-(((S,E)-5-phenyl-1-(pyrimidin-2-yl)pent-1-en-3-yl)amino)propan-2-yl)piperazine-1-carboxamide]
Ki (cruzain; [8]): 2.2 ± 0.1 µM | EC50 [1, 9]: 5 to 8 µM | CC50 at 48 h [2]: > 10 µM | EC50 [3]: 20 µM | T. cruzi axenic culture EC50 [3]: poorly effective | EC50 ([4]; Trypanosoma brucei, read-out: EC50 T. b. brucei BSF, axenic culture): > 20 µM

C[C@@H](/C=C/c1ncccn1)NC(=O)[C@H](Cc1ccccc1)NC(=O)OCc1ccccc1 [Compound 10, Benzyl ((S)-1-Oxo-3-phenyl-1-(((S,E)-4-(pyrimidin-2-yl)but-3-en-2-yl)amino)propan-2-yl)carbamate]
Ki (cruzain; [10]): 58 µM | Ki (cruzain; apparent tight-binding inhibition constant, 25° C.): 0.28 µM | Ki (cruzain; [8]): 25 ± 1 µM | EC50 [1, 9]: 5 to 8 µM | CC50 at 48 h [2]: > 10 µM

O=C(N[C@@H](Cc1ccccc1)C(=O)N[C@H](/C=C/c1ncco1)Cc1ccccc1)OCc1ccccc1 [Compound 24, Benzyl ((S)-1-(((S,E)-4-(Oxazol-2-yl)-1-phenylbut-3-en-2-yl)-amino)-1-oxo-3-phenylpropan-2-yl)carbamate]
Ki (cruzain; [10]): 10 ± 1 µM | Ki (cruzain; [8]): 0.71 ± 0.01 µM | EC50 ([5]; Trypanosoma brucei): 27 ± 5 µM | CC50 (human dermal fibroblasts): > 100 µM | EC50 [3]: > 20 µM | T. cruzi axenic culture EC50 [3]: poorly effective

O=C(N[C@@H](Cc1ccccc1)C(=O)N[C@H](/C=C/c1cc(C(F)(F)F)ccn1)CCc1ccccc1)OCc1ccccc1 [Compound 17, Benzyl ((S)-1-Oxo-3-phenyl-1-(((S,E)-5-phenyl-1-(4-(trifluoromethyl)pyridin-2-yl)pent-1-en-3-yl)amino)propan-2-yl)-carbamate]
Ki (cruzain; [8]): 0.57 ± 0.05 µM | inhibition at 20 µM ([5]; Trypanosoma brucei, at 20 μM, read-out: inhibition of cell growth): ≤ 50% | Rate of Thiolation, k [6]: Negligible | T. cruzi axenic culture EC50 [3]: poorly effective

O=C[C@H](Cc1ccccc1)NC(=O)[C@H](Cc1ccccc1)NC(=O)OCc1ccccc1 [Compound 28] (Cbz-Phe-Phe-aldehyde)
k4 (cruzain; conversion of EI* back to EI, from kobs replot or recovery after preincubation and dilution): (7.6±0.6)×10^−4 s^−1 | Ki (cruzain; obtained >10 minutes following initiation of reaction by addition of enzyme, read-out: Ki* Cruzain): 0.00044 µM | residence time τ (cruzain; preincubation, dilution, recovery of cruzain activity): 52 min | Ki (human cathepsin L): 0.00031 µM | Ki* 3CLpro (SARS-CoV-2 3CL protease): not an inhibitor of 3CL protease | Ki (SARS-CoV-2 3CL protease; read-out: Ki* 3CLpro): > 10 µM | EC50 ([1]; C2C12 murine cardiomyoblasts): 0.5 µM and 0.25 µM | EC50 [5]: 8 µM | EC50 [7]: 0.5 µM | EC50 ([4]; read-out: EC50 T. b. brucei BSF, axenic culture): 3 µM and 3.3 µM
